Patent US9662303B2, “Composition and method for treating cancer” (PG-Pharma, LLC, priority 2006, dated 2017)
Read-outs that look alike come from different tables or passages of the source.

Assays:
[1] = test system: IPC-melanoma; conditions: ref (9), cited from earlier work
[2] = test system: MAPKinase (erk 1 and erk 2); conditions: induced by basic fibroblast growth factor (bFGF); 1.0 μM; refs (7;11); cited from earlier work
[3] = test system: human fibroblast (HOFA) cell line; conditions: over seven days; ref (9); cited from earlier work
[4] = test system: SH-SY5Y neuroblastoma; conditions: cited from earlier work
[5] = test system: adenocarcinoma HeLa; conditions: ref (10); cited from earlier work
[6] = test system: cadherin-5; conditions: human SH-SY5YTRK-A neuroblastoma cells pre-treated with NgF; ref (11); cited from earlier work
[7] = test system: ovarian OVCAR4; conditions: ref (10); cited from earlier work
[8] = test system: Jurkat leukaemia; conditions: ref (10); cited from earlier work
[9] = test system: Peyer's patches; assay: Effect on Peyer's patches; conditions: in vivo
Source text: The manipulation of various homing factors e.g. L-selectin-mAb LM1-3 and addressin-mAdCAM-1 and integrins such as alpha4beta7 as therapeutic targets on Peyer's patches dendritic cells is a rapidly expanding field in drug development against intestinal bowel diseases (IBD) e.g. colitis, colorectal carcinoma and Chrohn's disease (20;21). DTS caused an enlargement in Peyer's patches possible by an activation of cell proliferation. Thus, based on this finding we hereby proposed that the effect of DTS on the Peyer's patches should be elucidated with the hope of developing drugs against IBD.

[10] = test system: breast M231; conditions: ref (10); cited from earlier work
[11] = test system: Starfish embryos; conditions: ref (11); cited from earlier work
[12] = test system: human SH-SY5Y neuroblatsoma cells; assay: Anti-proliferation/cytotoxic activity of DTS and DTS-BSA complex on SH-SY5Y cells; format: cell-based; conditions: for Percentage anti-proliferation activity: SH-SY5Y
Source text: 3. […] 4. […] See Williams et al., (2004) West Indian Medical Journal 53 (4) pp. 208-219 for the preparation of cell culture medium and assessment of anti-proliferation/cytotoxic activity on the human SH-SY5Y neuroblatsoma cells (12); the previous reference is hereby incorporated by reference in its entirety. A summary of the results from an experiment involving the above synthesis method were as follows: […]

[13] = test system: bone marrow; conditions: cited from earlier work
[14] = biological target: T1, Bovine Serum Albumin (BSA) (Bos taurus, UniProt P02769); conditions: personal communication; cited from earlier work
[15] = test system: mice; assay: Toxicity to mice; format: in vivo; conditions: up to 30 mg/kg body weight
Description: In addition, concentration of up to 30 mg/kg body weigh was not toxic to mice. DTS seems to activate the bone marrow at 10 mg/kg body weight since granulocytes differential count was increased by 50% (5).

[16] = test system: thymus; conditions: old mice; refs (5;11); cited from earlier work
[17] = test system: MCF-7 mammary carcinoma; conditions: cited from earlier work
[18] = test system: Erythrocytes (red blood cells, RBCs); conditions: RBCs separated from WBCs, in buffer, concentrations higher than those effective on cancer cells; refs (11;32); cited from earlier work
[19] = biological target: mitogen-activated protein kinases phosphatase 1 (MKP-1) (Homo sapiens, UniProt P28562); conditions: in vitro; ref (12); cited from earlier work
[20] = test system: ovarian A2780; conditions: ref (10); cited from earlier work
[21] = test system: human TE-671 sarcoma cell line; conditions: 0.56 μM, ref (9); cited from earlier work
[22] = test system: immune system; assay: Stimulation of the immune system in mice; format: in vivo; conditions: 11 mg/kg body weight
Description: The DTS-albumin formulation of the present invention can also be administered to a patient with a formulation dosage that is predetermined based upon data specific to that patient. For example, weight, metabolic factors, genetic factors, etc. can contribute to varying predetermined dosage amounts that are used to prescribe the specific predetermined dosage to the patient. Preferably the formulation dosage is between about 0.023 mg/kg and about 2.3 mg/kg body weight. […] The DTS-BSA complex was active at 0.5 ng/mL in vitro dose, a ratio of about 480. Thus, 11 divided by 480 is about 0.023 mg/Kg body weight (minimum). Similarly, the maximum is about 2.3 mg/Kg body weight. If we assumed that the maximum weigh of a human to be treated with the ATS-albumin complex Is 70 Kg, then the upper limit would be […]=1.61 mg/70 kg body weight.

[23] = test system: A637 primary bladder carcinoma; conditions: ref (9); cited from earlier work
[24] = biological target: T1, Bovine Serum Albumin (BSA); conditions: 500 ng/mL (0.5 μg/mL), pH 6.0; ref (11); cited from earlier work
[25] = Spectrophotometric absorbance binding experiments on pure tyrosine and phenylalanine; conditions: room temperature
Source text: Here is an outline of these experiments:
1. A plot of Absorbance (nm) with time (mins) of the interaction with tyrosine and DTS gives a normal distribution (Gaussian) with the highest optimum at room temperature.
2. As temperature is increased there is a lowering of the optimum on the graph until a straight line is created.
4. Phenylalanine, which is an aromatic amino acid, gives a straight line at room temperature with DTS, while DTS and tyrosine give a Gaussian distribution; the height of the curve is a function of the ratio of the DTS used.

[26] = test system: A549; conditions: ref (9); cited from earlier work
[27] = test system: non-small cell lung cancer H460; conditions: ref (10); cited from earlier work
[28] = test system: fibrosarcoma HT1080; conditions: ref (10); cited from earlier work
[29] = test system: Th-1 and Th-2 cytokines; conditions: Human Mixed Lymphocytes Responses, CD3 dependent activation, cited from earlier work

T1 sequence (P02769 25-607): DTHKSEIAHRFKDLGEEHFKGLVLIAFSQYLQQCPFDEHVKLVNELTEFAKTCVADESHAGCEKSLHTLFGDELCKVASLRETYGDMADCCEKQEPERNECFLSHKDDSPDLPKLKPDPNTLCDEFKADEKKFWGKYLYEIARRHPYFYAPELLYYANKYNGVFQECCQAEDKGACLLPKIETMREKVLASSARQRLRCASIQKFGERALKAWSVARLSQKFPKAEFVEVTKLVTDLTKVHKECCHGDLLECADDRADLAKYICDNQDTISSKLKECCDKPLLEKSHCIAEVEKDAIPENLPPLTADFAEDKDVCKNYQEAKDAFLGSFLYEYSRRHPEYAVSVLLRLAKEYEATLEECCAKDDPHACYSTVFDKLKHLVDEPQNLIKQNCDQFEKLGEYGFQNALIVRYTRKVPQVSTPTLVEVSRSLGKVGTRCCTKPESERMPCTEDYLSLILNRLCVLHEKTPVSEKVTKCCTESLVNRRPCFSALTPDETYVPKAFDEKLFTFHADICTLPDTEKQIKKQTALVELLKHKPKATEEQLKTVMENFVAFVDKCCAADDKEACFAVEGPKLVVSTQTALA
Chain of mitogen-activated protein kinases phosphatase 1 (MKP-1) (P28562 whole entry, species assumed): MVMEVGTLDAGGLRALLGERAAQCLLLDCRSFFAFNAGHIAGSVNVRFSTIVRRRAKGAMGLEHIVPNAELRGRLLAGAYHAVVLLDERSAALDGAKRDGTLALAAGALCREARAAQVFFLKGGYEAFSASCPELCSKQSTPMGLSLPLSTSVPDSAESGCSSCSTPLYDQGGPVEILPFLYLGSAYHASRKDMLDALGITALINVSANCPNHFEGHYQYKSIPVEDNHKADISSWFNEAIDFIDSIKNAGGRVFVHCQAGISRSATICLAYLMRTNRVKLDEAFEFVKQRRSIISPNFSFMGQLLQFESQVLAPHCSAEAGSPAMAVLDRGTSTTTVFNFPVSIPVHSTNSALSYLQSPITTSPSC

## c1ccc(CSSSCc2ccccc2)cc1 [DTS, dibenzyl trisulphide]
[1]; IPC-melanoma cells exposed to 1.0 μM
  nuclear morphology (mitotic catastrophe): nuclear fragmentation
[1]; IPC-melanoma
  IC50: 2.9 µM
[2]
  hyperphosphorylation of MAPKinase (erk 1 and erk 2) signalling: 30%
[3]
  toxicity to human fibroblast (HOFA) cell line: not to be toxic
[4]; SH-SY5Y in vitro, refs (11;12)
  enhancement of cytotoxic action by complexing DTS to Bovine Serum Albumin: 70 fold
[4]; SH-SY5Y neuroblastoma, ref (9)
  IC50: 0.43 µM
[5]
  IC50: 2.5 µM
[6]
  expression of cadherin-5: up-regulate
[7]
  IC50: 1.4 µM
[8]
  IC50: 0.35 µM
[9]
  Peyer's patches size: enlargement
[10]
  IC50: 2.4 µM
[11]
  effect on protein biosynthesis: did not have any effect
[12]; DTS alone, in vitro, cell system not stated
  effective in vitro dose: 240 ng/mL
[12]; DTS at 39 ng/mL (No BSA)
  Percentage anti-proliferation activity: 1.68%
[12]; DTS at 78 ng/mL (No BSA)
  Percentage anti-proliferation activity: 38.22%
[12]; DTS at 1.25 μg/mL (No BSA)
  Percentage anti-proliferation activity: 93.00%
[13]; 10 mg/kg body weight, ref (5)
  increase of granulocytes differential count: 50%
[13]; refs (5;11)
  production of granulocytes and erythrocytes: increased
[14]
  binding of glucose to BSA: inhibit
[15]
  toxicity to mice: not toxic
[16]
  thymic weight: increase
[17]; ref (9)
  IC50: 2.24 µM
[17]; ref (10)
  IC50: 6.6 µM
[18]
  effect on erythrocytes: cell-cell attraction with morphological changes without lysis
[19]
  binding of MKP-1 to its substrate OMFP: enhance
[20]
  IC50: 0.4 µM
[21]
  anti-proliferation/cytotoxic activity: 44.67%
[22]
  effect on the immune system: stimulated the immune system
[23]
  IC50: 18.8 µM
[24]
  protection of BSA from denaturation: 50.83%
[25]
  binding to aromatic amino acids (absorbance): binds only to tyrosine
[26]
  IC50: 15.8 µM
[27]
  IC50: 5.1 µM
[28]
  IC50: 1.9 µM
[29]
  Th-2 cytokines such as IL-4: up-regulated
[29]; ref (11)
  Th-1 cytokines: down regulates
